Read-outs that look alike come from different tables or passages of the source. Where a SMILES comes first, the peptide text is derived from it. Bridges are numbered along the chain shown (N, C = ends). [ ]: non-standard residue; d: D form. The star is where a group is joined. X1 = CC[C@H](C)CCCCC(=O)*; Dab = NCC[C@H](N)C(=O)O
Columns and labels:
[1] = Colistin pharmacokinetics in plasma after nebulized CMS in ventilated VARI patients; assay type: in vivo, human; conditions: for Volume of distribution/ fraction of dose absorbed / Clearance/fraction of dose absorbed / Cmax / AUC0–8 h: NCA; for Volume of distribution/ fraction of dose absorbed: dose/(λ × AUCinf); for Volume of distribution/ fraction of dose absorbed / Clearance/fraction of dose absorbed / Cmax / Cmin / AUC0–8 h / level at 0.5 h / level at 1 h / level at 2 h / level at 4 h / level at 6 h / level at 8 h / Tmax: median (IQR); for Clearance/fraction of dose absorbed: dose/AUCinf; for AUC0–8 h: no systemic CMS, HPLC-fluorescence; for level at 0.5 h / level at 1 h / level at 2 h / level at 4 h / level at 6 h / level at 8 h / Tmax: 2 mIU; for level at 0.5 h: 0.5 h post-nebulization; for level at 0.5 h / level at 1 h / level at 2 h / level at 4 h / level at 6 h / level at 8 h: read-out: Ccolistin, plasma; for level at 1 h: 1 h post-nebulization; for level at 2 h: 2 h post-nebulization; for level at 4 h: 4 h post-nebulization; for level at 6 h: 6 h post-nebulization; for level at 8 h: 8 h post-nebulization
Description: The study population consisted of 24 critically ill adult patients, admitted to the intensive care unit of the First Department of Pulmonology of the National and Kapodistrian University of Athens between June 2014 and November 2017. All patients were intubated and mechanically ventilated, and received inhaled CMS as part of their treatment for VAP or VAT caused by Gram-negative pathogens. Subjects were studied around the first dose of nebulized treatment, which always preceded intravenous treatment, to avoid confounding by colistin (or CMS) reaching the ELF via the systemic circulation. We excluded patients that received a dose different to the institution’s standard of 2 million international units (mIU) (~160 mg) of CMS and patients who were planned to receive intravenous colistin within 8 h of nebulization initiation.
A dose of 2 mIU of CMS (Colistin®, Norma Hellas, Athens, Greece), corresponding to approximately 160 mg CMS or 68 mg colistin-base activity, was nebulized over a 10–30 min period via either VMN (Aeroneb Solo with Aeroneb Pro controller, Aerogen, Galway, Ireland) or generic JN. This was not a randomized trial, and the nebulizer selection was exclusively a matter of availability of VMN consumables in the ICU at the time. The intended dose was dissolved in 4 mL of normal saline 0.9%. The nebulizer was placed at the inspiratory limb of the ventilator circuit, at 15 cm from the Y-piece, and the heat and moisture exchanger was removed. During nebulization, the patients were sedated and ventilated using assist volume controlled mode, with tidal volume set at 8 mL/kg of ideal body weight, a constant squared-wave inspiratory flow, a positive end expiratory pressure (PEEP) of less than or equal to 10 cm H2O, an inspiratory to expiratory time ratio equal to 1, an inspiratory pause of 10%, and a respiratory rate set at 15/min [31].
[…] The specimens were immediately centrifuged (3500× g for 10 min) in a frigid centrifuge (at 4 °C) and supernatants were collected in Eppendorfs and were frozen at −80 °C until analysis.
Colistin concentrations in plasma (Ccolistin,plasma) and epithelial lining fluid (Ccolistin,ELF) were measured through high performance liquid chromatography (HPLC)-fluorescence analysis.
The samples were rapidly centrifuged, and plasma and BAL supernatant were separated and kept frozen (−80 °C) before analysis, as previously described. An HPLC-RF assay was used for colistin concentration measurements in plasma and BAL fluid samples, based on the method of Li et al., as modified by Markou et al. and Ratjen et al.. Briefly, netilmicin was used as the internal standard and the method consisted of a protein precipitation step with trifluoracetic acid (TFA), followed by colistin derivatization with 9-fluorenylmethyl chloroformate on a solid phase extraction C18 cartridge. The eluted fluid was dried under vacuum and the solid residue was reconstituted in mobile phase for subsequent reversed-phase HPLC with fluorescence detection (excitation: 260 nm; emission: 316 nm). The analytical column was a Phenomenex Luna C18, 3 μm, 50 mm × 3 mm with 100 Å particle size, while the mobile phase consisted of ACN/THF/H2O (80/7.7/12.3%) with a flow rate of 0.5 mL/min. The injection volume was 20 μL. The method was linear at a concentration range of 0.10–4.8 mg/L (R^2 = 0.999). The limit of detection (LOD) and lower limit of quantification (LLOQ) were 0.01 and 0.04 mg/L, respectively, while the intra- and inter-assay variabilities were less than 16%. Representative chromatograms and calibration curves in plasma and BAL are given in the Supplementary Material (Figures S1 and S2).
PK analysis was performed on measured serum and ELF concentrations using the Phoenix® version 8.3 PK/PD software package (Certara, Princeton, NJ, USA). […]

[2] = cited from earlier work
Description: However, the ELF exposure was similar, despite the higher dose, probably due to a higher clearance from the lung compartment in our study, as evidenced by the ... || Contrarily, our results were only marginally compatible with the results of Boisson et al. and Gkoufa et al.. In the former study, the range of colistin concentration in the ELF following a 2 mIU inhalation spanned from 9.53 to 1137 mg/L [14], while it was between 0.8 mg/L and 57.9 mg/L in the present study. In the latter study, the exact values were not reported, however in the figured data it was shown that after an inhalation of 3 to 5 mIU of CMS, formed colistin concentrations were in the range of 10^2 to 10^3 mg/L [16]. Again, it is not known whether these differences we ...

[3] = piglets, cited from earlier work
Description: Nevertheless, in a piglet model of ventilated P. aeruginosa inoculation pneumonia, Lu et al. observed a serum maximum colistin concentration of 1.6 ± 1.4 mg/L after VMN aerosolization of 0.1 mIU/kg of CMS [28]. […] Post-nebulization colistin tissue levels have never been measured in humans; if the results abov ...

[4] = tested on: Pseudomonas aeruginosa; conditions: animal thigh and lung infection models; cited from earlier work
[5] = tested on: Acinetobacter baumannii; conditions: animal thigh and lung infection models; cited from earlier work
[6] = human, inhaled or intranasal, JN, n = 6, 2 mIU CMS inhaled
[7] = human, inhaled or intranasal, VMN, n = 18, 2 mIU CMS inhaled

CC[C@H](C)CCCCC(=O)N[C@@H](CCN)C(=O)N[C@H](C(=O)N[C@@H](CCN)C(=O)N[C@H]1CCNC(=O)[C@H]([C@@H](C)O)NC(=O)[C@H](CCN)NC(=O)[C@H](CCN)NC(=O)[C@H](CC(C)C)NC(=O)[C@@H](CC(C)C)NC(=O)[C@H](CCN)NC1=O)[C@@H](C)O [colistin] (X1-[Dab]T[Dab][Dab][Dab][dL]L[Dab][Dab]T; lactam 4-C)
Ccolistin over 2 mg/L, frequency of patients ([1]; 30 min, JN, n = 6, 2 mIU CMS inhaled): 0%
Ccolistin over 2 mg/L, frequency of patients ([1]; 30 min, VMN, n = 18, 2 mIU CMS inhaled): 0%
Ccolistin over 2 mg/L, frequency of patients ([1]; 60 min, JN, n = 6, 2 mIU CMS inhaled): 16.7%
Ccolistin over 2 mg/L, frequency of patients ([1]; 60 min, VMN, n = 18, 2 mIU CMS inhaled): 61.1%
Ccolistin over 2 mg/L, frequency of patients ([1]; 120 min, JN, n = 6, 2 mIU CMS inhaled): 16.7%
Ccolistin over 2 mg/L, frequency of patients ([1]; 120 min, VMN, n = 18, 2 mIU CMS inhaled): 22.2%
Ccolistin over 2 mg/L, frequency of patients ([1]; 240 min, JN, n = 6, 2 mIU CMS inhaled): 16.7%
Ccolistin over 2 mg/L, frequency of patients ([1]; 240 min, VMN, n = 18, 2 mIU CMS inhaled): 5.6%
Ccolistin over 2 mg/L, frequency of patients ([1]; 360 min, JN, n = 6, 2 mIU CMS inhaled): 0%
Ccolistin over 2 mg/L, frequency of patients ([1]; 360 min, VMN, n = 18, 2 mIU CMS inhaled): 0%
Ccolistin over 2 mg/L, frequency of patients ([1]; 480 min, JN, n = 6, 2 mIU CMS inhaled): 0%
Ccolistin over 2 mg/L, frequency of patients ([1]; 480 min, VMN, n = 18, 2 mIU CMS inhaled): 0%
Volume of distribution/ fraction of dose absorbed ([1]; JN, n = 6, 2 mIU CMS inhaled): 129.8 (95.6–151.9) L
Clearance/fraction of dose absorbed ([1]; JN, n = 6, 2 mIU CMS inhaled): 37.6 (23.2–39.9) L/h
Cmax ([1]; JN, n = 6, 2 mIU CMS inhaled): 0.3 (0.3–1.6) mg/L
AUC0–24 ([1]; JN, n = 6, 2 mIU CMS inhaled, calculated as AUCinf × 3, median (IQR)): 4.0 (3.8–19.3) mg/L∙h
Cmin ([1]; JN, n = 6, 2 mIU CMS inhaled): 0.1 (0.1–0.2) mg/L
AUC0–8 h ([1]; JN, n = 6, 2 mIU CMS inhaled): 1.3 (1.3–6.4) mg/L∙h
Mean T1/2 (SD) ([1]; JN, n = 6, 2 mIU CMS inhaled, t1/2 = 0.693/λ, mean (SD), SD): 2.4 (0.5) h
Volume of distribution/ fraction of dose absorbed ([1]; VMN, n = 18, 2 mIU CMS inhaled): 22.8 (16.8–33.0) L
Clearance/fraction of dose absorbed ([1]; VMN, n = 18, 2 mIU CMS inhaled): 7.3 (6.0–9.1) L/h
Cmax ([1]; VMN, n = 18, 2 mIU CMS inhaled): 2.6 (2.0–3.5) mg/L
Cmin ([1]; VMN, n = 18, 2 mIU CMS inhaled): 0.2 (0.1–0.3) mg/L
AUC0–8 h ([1]; VMN, n = 18, 2 mIU CMS inhaled): 7.5 (5.5–8.8) mg/L∙h
level at 0.5 h [1, 6]: 100 ng/mL
level at 0.5 h [1, 7]: 600 ng/mL
level at 1 h [1, 6]: 100 ng/mL
level at 1 h [1, 7]: 2300 ng/mL
level at 2 h [1, 6]: 300 ng/mL
level at 2 h [1, 7]: 1700 ng/mL
level at 4 h [1, 6]: 200 ng/mL
level at 4 h [1, 7]: 800 ng/mL
level at 6 h [1, 6]: 100 ng/mL
level at 6 h [1, 7]: 400 ng/mL
level at 8 h [1, 6]: 100 ng/mL
level at 8 h [1, 7]: 200 ng/mL
Tmax [1, 6]: 2.2 h
Tmax [1, 7]: 1.5 h
half-life ([1]; human, inhaled or intranasal, VMN, n = 18, 2 mIU CMS inhaled, t1/2 = 0.693/λ, mean (SD), SD): 2.4 h
median plasma Cmax ([2]; 1 mIU of CMS via VMN, ref 13 (Athanassa et al.)): 1600 ng/mL
plasma concentrations ([2]; after inhaled CMS, generally): below 1 mg/L
median peak lung tissue concentration ([3]; 1 h after the third inhaled dose, upon sacrifice): 2.8 µg/g
serum maximum colistin concentration ([3]; VMN aerosolization of 0.1 mIU/kg of CMS, ref 28 (Lu et al.)): 1.6 ± 1.4 mg/L
fAUC/MIC predicting 1-log killing [4]: 12.2–22.8
fAUC/MIC predicting 1-log killing [5]: 7–42
